{
  "source": "patent US20220288022A1",
  "about": "“PHARMACEUTICAL COMPOSITION FOR TOPICAL USE THAT IS IN THE FORM OF A DISPERSED PHASE BASED ON AT LEAST ONE SHORT DIOL IN A CONTINUOUS FATTY PHASE AND COMPRISING AT LEAST ONE ANTI-INFLAMMATORY SUBSTANCE” (SOCIETE D'EXPLOITATION DE PRODUITS POUR LES INDUSTRIES …, priority 2019, published 2022)",
  "experiment": "Conductivity (σ) of the emulsions, characterization of the direction of the emulsion",
  "type": "physicochemical",
  "settings": "measured at 25° C., neat diol",
  "method": "The conductivity (σ) of the emulsions (F1) to (F3) according to the invention and of the emulsions (F′1) to (F′3) is measured at 25° C., after a period of storage of said emulsions of one day in an insulated climatic chamber regulated at a temperature of 25° C., by means of an LF 196™ brand conductivity meter from the company WTW equipped with a TetraCon™ 96 electrode. If, for a given emulsion, (σ)≤0.5 μS.cm^−1, the emulsion is considered to be non-conductive and consequently the external phase is not the phase based on 1,2-propanediol but the oily phase. Indeed, the conductivity, measured at 25° C., of 1,2-propanediol is equal to 4400 μS.cm^−1. If, for a given emulsion, (σ)>0.5 μS.cm^−1, the emulsion is considered to be conductive and consequently the external phase is not the oily phase but the phase based on 1,2-propanediol or glycerol or PEG-400. This same measurement of the conductivity of the emulsions (F1) to (F3) according to the invention and of the comparative emulsions (F′1) to (F′3) is measured at 25° C. after three months at 25° C., and after three months at 45° C.",
  "data": [
    {"smiles": "CC(O)CO", "note": "(stereo not shown) [1,2-propanediol]", "values": [
      {"measurement": "conductivity of 1,2-propanediol", "result": 4400, "unit": "μS.cm^−1"}
    ]}
  ]
}
